In the test the test system is Isolated medial neurons from Aplysia oculifera pleuropedal ganglia. Format: cell-based.

Here are results for 1 compound from patent publication US6624288B1 (priority 1997, dated 2003).

Regarding `NC1=N[C@H](O)[C@H]2[C@H]3O[C@]4(O)O[C@@H]([C@@H](O)[C@@]2(N1)[C@@H]4O)[C@]3(O)CO` [tetrodotoxin], the “effect on TxI-induced spike prolongation” value is listed as “reduced the TxI-induced spike prolongation”.
